Data from ChEMBL document CHEMBL1201862, “PubChem BioAssay data set” (2004).
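48-hour exposure; five concentrations; linearly interpolated endpoints. GI50 is the concentration that inhibits growth by half.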 Activity calls are given as the source filed them. Cut-off read from the data, not from the text of the source: active = GI50 up to about 1.1 µM and inactive = higher.

Assays:
Assay in all cases: NCI tumour cell line growth inhibition, 48 h
786-0 = system: 786-0
A498 = system: A498
A549 = system: A549
ACHN = system: ACHN
CAKI-1 = system: CAKI-1
CCRF-CEM = system: CCRF-CEM
COLO 205 = system: COLO 205
DU-145 = system: DU-145
EKVX = system: EKVX
HCC 2998 = system: HCC 2998
HCT-116 = system: HCT-116
HCT-15 = system: HCT-15
HL-60 = system: HL-60
HOP-62 = system: HOP-62
HT-29 = system: HT-29
Hs-578T = system: Hs-578T
IGROV-1 = system: IGROV-1
K562 = system: K562
KM12 = system: KM12
LOX IMVI = system: LOX IMVI
M14 = system: M14
MCF7 = system: MCF7
MDA-MB-231 = system: MDA-MB-231
MDA-MB-435 = system: MDA-MB-435
MDA-N = system: MDA-N
MOLT-4 = system: MOLT-4
Malme-3M = system: Malme-3M
NCI-H226 = system: NCI-H226
NCI-H23 = system: NCI-H23
NCI-H460 = system: NCI-H460
NCI-H522 = system: NCI-H522
NCI/ADR-RES = system: NCI/ADR-RES
OVCAR-3 = system: OVCAR-3
OVCAR-4 = system: OVCAR-4
OVCAR-5 = system: OVCAR-5
OVCAR-8 = system: OVCAR-8
PC-3 = system: PC-3
RPMI-8226 = system: RPMI-8226
RXF 393 = system: RXF 393
SF-268 = system: SF-268
SF-295 = system: SF-295
SF-539 = system: SF-539
SK-MEL-28 = system: SK-MEL-28
SK-MEL-2 = system: SK-MEL-2
SK-MEL-5 = system: SK-MEL-5
SK-OV-3 = system: SK-OV-3
SN12C = system: SN12C
SNB-19 = system: SNB-19
SNB-75 = system: SNB-75
SR = system: SR
SW-620 = system: SW-620
T47D = system: T47D
U-251 = system: U-251
UACC-257 = system: UACC-257
UACC-62 = system: UACC-62
UO-31 = system: UO-31
HOP-92 = system: HOP-92
TK-10 = system: TK-10
BT-549 = system: BT-549

`Cc1ccc(NCCCN2CCN(CCCNc3ccc(C)c4sc5ccccc5c(=O)c34)CC2)c2c(=O)c3ccccc3sc12` was tested, and the GI50 (786-0) was 95.5 µM (inactive), the GI50 (A498) was 82 µM (inactive) and the GI50 (A549) was > 100 µM (inactive). For the same compound, the GI50 (ACHN) was > 100 µM (inactive), the GI50 (CAKI-1) was > 100 µM (inactive) and the GI50 (CCRF-CEM) was > 100 µM (inactive). The GI50 (COLO 205) was > 100 µM (inactive), the GI50 (DU-145) was 71.6 µM (inactive) and the GI50 (EKVX) was 86.3 µM (inactive). For the same compound, the GI50 (HCC 2998) was > 100 µM (inactive), the GI50 (HCT-116) was > 100 µM (inactive) and the GI50 (HCT-15) was greater than 100 µM. For the same compound, the GI50 (HL-60) was > 100 µM (inactive), the GI50 (HOP-62) was > 100 µM (inactive) and the GI50 (HT-29) was > 100 µM (inactive). The GI50 (Hs-578T) was 37.2 µM (inactive), the GI50 (IGROV-1) was > 100 µM (inactive) and the GI50 (K562) was > 100 µM (inactive). For the same compound, the GI50 (KM12) was > 100 µM (inactive), the GI50 (LOX IMVI) was 98.4 µM (inactive) and the GI50 (M14) was > 100 µM (inactive). The GI50 (MCF7) was > 100 µM (inactive), the GI50 (MDA-MB-231) was > 100 µM (inactive) and the GI50 (MDA-MB-435) was > 100 µM (inactive). The GI50 (MDA-N) was > 100 µM (inactive), the GI50 (MOLT-4) was > 100 µM (inactive) and the GI50 (Malme-3M) was > 100 µM (inactive). For the same compound, the GI50 (NCI-H226) was > 100 µM (inactive), the GI50 (NCI-H23) was > 100 µM (inactive) and the GI50 (NCI-H460) was > 100 µM (inactive). For the same compound, the GI50 (NCI-H522) was > 100 µM (inactive), the GI50 (NCI/ADR-RES) was > 100 µM (inactive) and the GI50 (OVCAR-3) was > 100 µM (inactive). The GI50 (OVCAR-4) was > 100 µM (inactive), the GI50 (OVCAR-5) was > 100 µM (inactive) and the GI50 (OVCAR-8) was > 100 µM (inactive). For the same compound, the GI50 (PC-3) was 21.4 µM (inactive), the GI50 (RPMI-8226) was > 100 µM (inactive) and the GI50 (RXF 393) was 39.4 µM (inactive). For the same compound, the GI50 (SF-268) was 34.2 µM (inactive), the GI50 (SF-295) was 55.6 µM (inactive) and the GI50 (SF-539) was > 100 µM (inactive). For the same compound, the GI50 (SK-MEL-28) was 30.5 µM (inactive), the GI50 (SK-MEL-2) was 23.4 µM (inactive) and the GI50 (SK-MEL-5) was > 100 µM (inactive). The GI50 (SK-OV-3) was > 100 µM (inactive), the GI50 (SN12C) was > 100 µM (inactive) and the GI50 (SNB-19) was > 100 µM (inactive). For the same compound, the GI50 (SNB-75) was 20.6 µM (inactive), the GI50 (SR) was > 100 µM (inactive) and the GI50 (SW-620) was > 100 µM (inactive). For the same compound, the GI50 (T47D) was 58.7 µM (inactive), the GI50 (U-251) was 67.6 µM (inactive) and the GI50 (UACC-257) was > 100 µM (inactive). For the same compound, the GI50 (UACC-62) was 68.7 µM (inactive) and the GI50 (UO-31) was > 100 µM (inactive).
In the case of `Cc1ccc(S(=O)(=O)NCCCSCCSCCCN)cc1`, the GI50 (A498) is reported as > 100 µM (inactive), the GI50 (A549) is reported as > 100 µM (inactive) and the GI50 (ACHN) is reported as > 100 µM (inactive). The GI50 (CCRF-CEM) was > 100 µM (inactive), the GI50 (COLO 205) was > 100 µM (inactive) and the GI50 (DU-145) was > 100 µM (inactive). For the same compound, the GI50 (HCC 2998) was > 100 µM (inactive), the GI50 (HCT-116) was > 100 µM (inactive) and the GI50 (HCT-15) was greater than 100 µM. For the same compound, the GI50 (HL-60) was > 100 µM (inactive), the GI50 (HOP-92) was > 100 µM (inactive) and the GI50 (HT-29) was > 100 µM (inactive). The GI50 (Hs-578T) was > 100 µM (inactive), the GI50 (K562) was > 100 µM (inactive) and the GI50 (KM12) was > 100 µM (inactive). The GI50 (LOX IMVI) was > 100 µM (inactive), the GI50 (M14) was > 100 µM (inactive) and the GI50 (MCF7) was > 100 µM (inactive). For the same compound, the GI50 (MDA-MB-231) was > 100 µM (inactive), the GI50 (MDA-MB-435) was > 100 µM (inactive) and the GI50 (MDA-N) was > 100 µM (inactive). The GI50 (MOLT-4) was > 100 µM (inactive), the GI50 (NCI-H226) was > 100 µM (inactive) and the GI50 (NCI-H23) was > 100 µM (inactive). The GI50 (NCI-H460) was > 100 µM (inactive), the GI50 (NCI-H522) was > 100 µM (inactive) and the GI50 (NCI/ADR-RES) was > 100 µM (inactive). For the same compound, the GI50 (OVCAR-3) was > 100 µM (inactive), the GI50 (OVCAR-4) was > 100 µM (inactive) and the GI50 (OVCAR-8) was > 100 µM (inactive). For the same compound, the GI50 (PC-3) was > 100 µM (inactive), the GI50 (RXF 393) was > 100 µM (inactive) and the GI50 (SF-268) was > 100 µM (inactive). For the same compound, the GI50 (SF-295) was > 100 µM (inactive), the GI50 (SK-MEL-28) was > 100 µM (inactive) and the GI50 (SK-MEL-5) was > 100 µM (inactive). The GI50 (SK-OV-3) was > 100 µM (inactive), the GI50 (SN12C) was > 100 µM (inactive) and the GI50 (SNB-19) was > 100 µM (inactive). For the same compound, the GI50 (SNB-75) was > 100 µM (inactive), the GI50 (SR) was > 100 µM (inactive) and the GI50 (SW-620) was > 100 µM (inactive). The GI50 (T47D) was > 100 µM (inactive), the GI50 (TK-10) was > 100 µM (inactive) and the GI50 (U-251) was > 100 µM (inactive). The GI50 (UACC-257) was > 100 µM (inactive) and the GI50 (UO-31) was > 100 µM (inactive).
For `C=C(C)[C@@H]1CC[C@@H](C)[C@](O)([C@@H]2C[C@@H]([C@H](COC(=O)c3ccccc3)OC(=O)c3ccccc3)OC2=O)C1`, the GI50 (786-0) was > 100 µM (inactive), the GI50 (A498) was > 100 µM (inactive) and the GI50 (A549) was > 100 µM (inactive). For the same compound, the GI50 (ACHN) was > 100 µM (inactive), the GI50 (BT-549) was > 100 µM (inactive) and the GI50 (CAKI-1) was > 100 µM (inactive). The GI50 (CCRF-CEM) was > 100 µM (inactive), the GI50 (COLO 205) was > 100 µM (inactive) and the GI50 (DU-145) was > 100 µM (inactive). The GI50 (EKVX) was > 100 µM (inactive), the GI50 (HCC 2998) was > 100 µM (inactive) and the GI50 (HCT-116) was > 100 µM (inactive). For the same compound, the GI50 (HCT-15) was greater than 100 µM, the GI50 (HOP-62) was > 100 µM (inactive) and the GI50 (HT-29) was > 100 µM (inactive). For the same compound, the GI50 (IGROV-1) was > 100 µM (inactive), the GI50 (K562) was > 100 µM (inactive) and the GI50 (KM12) was > 100 µM (inactive). For the same compound, the GI50 (LOX IMVI) was > 100 µM (inactive), the GI50 (M14) was > 100 µM (inactive) and the GI50 (MCF7) was > 100 µM (inactive). The GI50 (MDA-MB-231) was > 100 µM (inactive), the GI50 (MDA-MB-435) was > 100 µM (inactive) and the GI50 (MDA-N) was > 100 µM (inactive). The GI50 (MOLT-4) was 28 µM (inactive), the GI50 (Malme-3M) was > 100 µM (inactive) and the GI50 (NCI-H226) was > 100 µM (inactive). The GI50 (NCI-H23) was > 100 µM (inactive), the GI50 (NCI-H460) was 39.1 µM (inactive) and the GI50 (NCI-H522) was > 100 µM (inactive). For the same compound, the GI50 (NCI/ADR-RES) was > 100 µM (inactive), the GI50 (OVCAR-3) was > 100 µM (inactive) and the GI50 (OVCAR-4) was 59.4 µM (inactive). For the same compound, the GI50 (OVCAR-5) was > 100 µM (inactive), the GI50 (OVCAR-8) was > 100 µM (inactive) and the GI50 (PC-3) was 46.1 µM (inactive). For the same compound, the GI50 (RPMI-8226) was 54 µM (inactive), the GI50 (RXF 393) was > 100 µM (inactive) and the GI50 (SF-268) was > 100 µM (inactive). The GI50 (SF-295) was > 100 µM (inactive), the GI50 (SF-539) was > 100 µM (inactive) and the GI50 (SK-MEL-28) was > 100 µM (inactive). The GI50 (SK-MEL-2) was > 100 µM (inactive), the GI50 (SK-MEL-5) was > 100 µM (inactive) and the GI50 (SK-OV-3) was > 100 µM (inactive). The GI50 (SN12C) was > 100 µM (inactive), the GI50 (SNB-19) was > 100 µM (inactive) and the GI50 (SNB-75) was > 100 µM (inactive). For the same compound, the GI50 (SR) was 24.9 µM (inactive), the GI50 (SW-620) was > 100 µM (inactive) and the GI50 (TK-10) was > 100 µM (inactive). The GI50 (U-251) was > 100 µM (inactive), the GI50 (UACC-257) was > 100 µM (inactive) and the GI50 (UACC-62) was > 100 µM (inactive). The GI50 (UO-31) was 29 µM (inactive).
